Measurements: ChEMBL document CHEMBL5728731, “Alkyl chain modified imidazoquinoline TLR7/8 agonist compounds and uses thereof” (2021)

Tests used:
Toll-like receptor 7 = molecular target: T1, Toll-like receptor 7 (Homo sapiens, UniProt Q9NYK1); assay: (§1) n Vitro Biological Assays: Plasmacytoid dendritic cell (pDC)—enriched peripheral blood mononuclear cells (PBMCs) were prepared from the blood of a series of human donors (3-5 donors/experiment). PBMCs were isolated using Ficoll-Paque Premium® (GE Healthcare, Chicago Ill.) using methods well known to those in the art. pDCs were magnetically isolated from the total recovered PBMC population using CD304 (BDCA-4/Neuropilin-1) microbeads (Miltenyi Biotec, San Diego Calif.), according to the manufacturer's instructions. Isolated pDCs were then added back to between 1 and 2×108 of the corresponding donor's PBMCs for relative enrichment of this cell type. […] Culture supernatants were collected and interferon-alpha (IFNα) protein levels were measured by ELISA (MabTech, Cincinnati Ohio), according to the manufacturer's instructions.Monocytes were magnetically isolated from PBMCs, prepared as described above, following labeling with CD14 microbeads (Miltenyi Biotec, San Diego Calif.), according to the manufacturer's instructions. […] Culture supernatants were collected and tumor necrosis factor alpha (TNFα) protein levels were measured by ELISA (MabTech, Cincinnati Ohio), according to the manufacturer's instructions.
T1 sequence (Q9NYK1 whole entry): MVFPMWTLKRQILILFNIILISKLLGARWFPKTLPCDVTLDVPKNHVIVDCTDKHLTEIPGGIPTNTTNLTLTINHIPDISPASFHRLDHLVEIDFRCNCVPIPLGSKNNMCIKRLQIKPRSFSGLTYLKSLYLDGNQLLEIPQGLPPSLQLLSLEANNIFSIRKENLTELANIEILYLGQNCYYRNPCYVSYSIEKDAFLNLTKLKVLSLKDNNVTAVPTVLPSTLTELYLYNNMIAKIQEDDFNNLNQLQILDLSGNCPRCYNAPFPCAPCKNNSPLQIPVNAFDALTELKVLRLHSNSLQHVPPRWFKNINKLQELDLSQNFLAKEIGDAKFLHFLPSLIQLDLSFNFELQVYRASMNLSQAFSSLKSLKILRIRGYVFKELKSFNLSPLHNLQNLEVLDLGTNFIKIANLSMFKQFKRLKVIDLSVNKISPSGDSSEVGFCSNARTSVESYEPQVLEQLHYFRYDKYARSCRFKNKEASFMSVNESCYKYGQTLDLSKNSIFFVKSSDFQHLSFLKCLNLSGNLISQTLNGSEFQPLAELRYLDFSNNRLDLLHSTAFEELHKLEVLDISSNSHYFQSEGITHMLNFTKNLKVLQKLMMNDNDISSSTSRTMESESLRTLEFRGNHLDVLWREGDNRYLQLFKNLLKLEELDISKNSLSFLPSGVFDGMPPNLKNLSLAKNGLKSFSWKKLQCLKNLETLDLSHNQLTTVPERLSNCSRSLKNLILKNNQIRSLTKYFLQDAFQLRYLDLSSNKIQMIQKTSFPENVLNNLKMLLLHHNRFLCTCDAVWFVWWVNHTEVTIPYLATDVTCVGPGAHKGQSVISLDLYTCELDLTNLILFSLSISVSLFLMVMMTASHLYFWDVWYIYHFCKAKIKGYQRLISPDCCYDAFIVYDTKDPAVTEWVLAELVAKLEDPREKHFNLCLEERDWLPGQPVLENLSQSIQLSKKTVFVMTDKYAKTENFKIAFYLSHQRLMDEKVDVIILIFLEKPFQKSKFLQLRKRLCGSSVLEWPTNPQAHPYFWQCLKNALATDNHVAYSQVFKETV

Toll-like receptor 8 = molecular target: T2, Toll-like receptor 8 (Homo sapiens, UniProt Q9NR97); assay: as §1
T2 sequence (Q9NR97 whole entry): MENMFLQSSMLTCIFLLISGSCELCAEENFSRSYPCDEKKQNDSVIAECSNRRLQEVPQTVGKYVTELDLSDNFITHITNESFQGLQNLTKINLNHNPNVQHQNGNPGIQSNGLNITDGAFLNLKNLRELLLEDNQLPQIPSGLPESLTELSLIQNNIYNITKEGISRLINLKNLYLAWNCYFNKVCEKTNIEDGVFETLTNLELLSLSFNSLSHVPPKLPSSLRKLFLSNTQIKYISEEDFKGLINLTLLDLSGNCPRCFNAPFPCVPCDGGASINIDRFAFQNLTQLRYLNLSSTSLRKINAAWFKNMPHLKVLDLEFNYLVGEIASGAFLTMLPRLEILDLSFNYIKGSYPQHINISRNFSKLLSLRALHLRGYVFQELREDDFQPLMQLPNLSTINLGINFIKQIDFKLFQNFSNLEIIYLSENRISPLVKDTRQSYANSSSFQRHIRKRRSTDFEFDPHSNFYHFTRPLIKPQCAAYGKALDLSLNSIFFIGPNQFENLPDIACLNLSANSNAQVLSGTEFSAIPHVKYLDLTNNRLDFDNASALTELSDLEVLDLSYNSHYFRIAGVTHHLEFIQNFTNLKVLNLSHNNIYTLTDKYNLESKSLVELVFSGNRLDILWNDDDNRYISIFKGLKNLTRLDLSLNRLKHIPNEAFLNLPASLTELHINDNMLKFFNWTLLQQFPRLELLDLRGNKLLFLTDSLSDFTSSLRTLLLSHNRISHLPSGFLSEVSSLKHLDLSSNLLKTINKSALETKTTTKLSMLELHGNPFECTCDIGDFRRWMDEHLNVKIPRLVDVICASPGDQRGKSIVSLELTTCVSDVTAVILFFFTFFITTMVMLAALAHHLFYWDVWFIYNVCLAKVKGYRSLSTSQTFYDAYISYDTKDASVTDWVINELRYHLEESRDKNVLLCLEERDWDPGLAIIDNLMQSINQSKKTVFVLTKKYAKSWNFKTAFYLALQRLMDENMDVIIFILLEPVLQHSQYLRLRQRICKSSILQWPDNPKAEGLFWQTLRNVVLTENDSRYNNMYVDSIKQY

Row | SMILES | EC50 (Toll-like receptor 7) | EC50 (Toll-like receptor 8)
1 | CCCCCCCCCCCCCCCCCC(=O)NCc1ccc(Cn2c(CCCC)nc3c(N)nc4ccccc4c32)cc1 | 41 nM | 5720 nM
2 | CCCCCCCCCCCCCCC(=O)NCc1ccc(Cn2c(CCCC)nc3c(N)nc4ccccc4c32)cc1 | 2 nM | 827 nM
3 | CCCCCC(=O)NCc1ccc(Cn2c(CCCC)nc3c(N)nc4ccccc4c32)cc1 | 11 nM | 2140 nM
